In patent publication US6464958B1, “Process for the preparation of suspensions of drug particles for inhalation delivery” (Chiesi Farmaceutici S.p.A., priority 1998, dated 2002):
Where two headings read alike, the source gives them in different places. One block for each compound: values may come before it.

Key:
[1] = HPLC purity and related substances of micronised BDP after gamma-irradiation; format: physicochemical
Description: (§1) About 600 g of micronised BDP was stored in a 20 1 polythene container after having replaced air by nitrogen, the container was in turn sealed in two Polikem bag. The product was subjected to gamma-irradiation at 2 to 9 KGy. After the exposure, the BDP purity and the amount of related substances were determined by HPLC. On the batch subjected to 2 kGy dose, the particle size as well as the loss of weight were also determined by Malvern analysis and TGA respectively, in comparison to the non-irradiated product.

[2] = cited from earlier work; for stability after gamma-irradiation: 60Co, 1 to 4 Mrad; for degradation degree: micronised steroids, radiation doses 4.5 and 15 Mrad
[3] = Particle size of micronised BDP powder by Malvern analysis; format: physicochemical
Description: as §1

[4] = Loss of weight by TGA of micronised BDP after gamma-irradiation; format: physicochemical
Description: as §1

stability after exposure to gamma-irradiation ([1]; 2 to 9 KGy): stable
Structure (SMILES): CCC(=O)OCC(=O)[C@@]1(OC(=O)CC)[C@@H](C)C[C@H]2[C@@H]3CCC4=CC(=O)C=C[C@]4(C)[C@@]3(Cl)[C@@H](O)C[C@@]21C [BDP, beclomethasone dipropionate]
stability after gamma-irradiation ([2]; powder): stable immediately after irradiation
stability after gamma-irradiation ([2]; solution in methanol or propylene glycol): quick degradation

Particle size distribution (μm, Malvern) d (0.1) ([3]; gamma-irradiation 2 KGy): 0.48 μm
Particle size distribution (μm, Malvern) d (0.5) ([3]; gamma-irradiation 2 KGy): 1.81 μm
Particle size distribution (μm, Malvern) d (0.9) ([3]; gamma-irradiation 2 KGy): 5.73 μm
Purity (%) ([1]; gamma-irradiation 2 KGy): 99.6%
Related substances (%) ([1]; gamma-irradiation 2 KGy): 0.4%
Purity (%) ([1]; gamma-irradiation 3.17 KGy): 99.6%
Related substances (%) ([1]; gamma-irradiation 3.17 KGy): 0.4%
Purity (%) ([1]; gamma-irradiation 9.08 KGy): 99.3%
Related substances (%) ([1]; gamma-irradiation 9.08 KGy): 0.7%
Loss of weight (%, TGA) ([4]; gamma-irradiation 2 KGy): 0.13%
Structure (SMILES): CCC(=O)OCC(=O)[C@@]1(OC(=O)CC)[C@@H](C)C[C@H]2[C@@H]3CCC4=CC(=O)C=C[C@]4(C)[C@@]3(Cl)[C@@H](O)C[C@@]21C [Irr. BDP, beclomethasone dipropionate]

The remaining lines, values behind:

Structure (SMILES): CCC(=O)OCC(=O)[C@@]1(OC(=O)CC)[C@@H](C)C[C@H]2[C@@H]3CCC4=CC(=O)C=C[C@]4(C)[C@@]3(Cl)[C@@H](O)C[C@@]21C [Non-irr. BDP, beclomethasone dipropionate]
Particle size distribution (μm, Malvern) d (0.1) ([3]; non-irradiated powder): 0.49 μm
Particle size distribution (μm, Malvern) d (0.5) ([3]; non-irradiated powder): 1.91 μm
Particle size distribution (μm, Malvern) d (0.9) ([3]; non-irradiated powder): 5.98 μm
Purity (%) ([1]; non-irradiated): 99.7%
Related substances (%) ([1]; non-irradiated): 0.3%
Loss of weight (%, TGA) ([4]; non-irradiated micronised powder): 0.12%

Structure (SMILES): C[C@]12CCC(=O)C=C1CC[C@@H]1[C@@H]2[C@@H](O)C[C@@]2(C)[C@H]1CC[C@]2(O)C(=O)COC(=O)CCC(=O)O [hydrocortisone sodium succinate]
percentage of degradation ([2]; powder corticosteroids sterilised with 60Co): 1.4 %/Mrad

Structure (SMILES): C[C@]12CCC(=O)C=C1CC[C@@H]1[C@@H]2[C@@H](O)C[C@@]2(C)[C@H]1CC[C@]2(O)C(=O)CO [hydrocortisone]
degradation degree [2]: about 2.4%

Structure (SMILES): C[C@]12C=CC(=O)C=C1CC[C@@H]1[C@@H]2[C@@H](O)C[C@@]2(C)[C@H]1CC[C@]2(O)C(=O)CO [prednisolone]
degradation degree [2]: about 2.4%
